Reference: patent US20220000871A1, “METHODS AND COMPOSITIONS FOR TREATING NEURODEGENERATIVE DISEASES USING MODULATORS OF PHOSPHOGLYCERATE KINASE 1 (PGK1) ACTIVITY” (UNIVERSITY OF IOWA RESEARCH FOUNDATION, priority 2019, published 2022)
“And” between values parts separate entries of the source, which are not always exact repeats. Equal values may be shown once.

Key:
[1] = system: PD-free enrollees; test: Truven database: incidence and survival analysis of PD diagnoses; format: in vivo, human; settings: matched cohort, 78,444 PD-free enrollees per group
Description: A cohort of enrollees newly started on TZ/DZ/AZ or tamsulosin was constructed. We defined newly started as at least 365 days of enrollment with prescription drug coverage prior to the first fill event for TZ/DZ/AZ or tamsulosin. Additionally, we required the enrollee to be PD-free at the time of the first fill (no prior PD diagnosis code). A total of 78,509 enrollees on TZ/DZ/AZ were identified and these enrollees were followed for an average of 285±382 days with a total of 118 cases of PD (incidence=0.15%). We matched each TZ/DZ/AZ user to a tamsulosin user of the same age at medication start and with the minimum difference in the duration of follow up. We were able to successfully match 78,444 of the 78,509 enrollees on TZ/DZ/AZ to an enrollee on tamsulosin. In the matched cohort, enrollees taking TZ/DZ/AZ have, on average, 284±381 days of follow up compared to 284±382 days of follow up in those taking tamsulosin. Of the 78,444 enrollees taking TZ/DZ/AZ, a total of 118 (0.15%) developed PD compared to 190 (0.24%) among those taking tamsulosin. We used a Cox proportional hazards regression to model the relative hazard of developing PD among those in the matched cohort taking TZ/DZ/AZ compared to those taking tamsulosin while accounting for censoring due to stopping the medication or exiting the data before developing PD. […]

[2] = molecular target: T1, phosphoglycerate kinase 1 (PGK1) (Homo sapiens, UniProt P00558); settings: reference 18; cited from earlier work
T1 sequence (P00558 1-417): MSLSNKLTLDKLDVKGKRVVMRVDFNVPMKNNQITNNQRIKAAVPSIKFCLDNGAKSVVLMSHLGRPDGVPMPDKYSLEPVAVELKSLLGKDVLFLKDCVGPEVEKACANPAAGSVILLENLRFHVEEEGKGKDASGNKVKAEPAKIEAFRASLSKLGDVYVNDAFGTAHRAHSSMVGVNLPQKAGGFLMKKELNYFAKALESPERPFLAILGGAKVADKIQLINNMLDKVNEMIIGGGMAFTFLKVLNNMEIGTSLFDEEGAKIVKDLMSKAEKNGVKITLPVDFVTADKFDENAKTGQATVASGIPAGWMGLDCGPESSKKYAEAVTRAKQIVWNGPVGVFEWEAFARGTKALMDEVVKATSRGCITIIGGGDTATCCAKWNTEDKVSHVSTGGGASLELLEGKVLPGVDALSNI

[3] = system: cultured cells; settings: reference 18, cited from earlier work
[4] = system: 6-OHDA-treated rats; test: Unilateral 6-OHDA lesion in rats; format: in vivo, rat
Experimental: FIG. 3. TZ slows neurodegeneration, increases dopamine, and improves motor performance in 6-OHDA-treated rats. A) Schematic for experiments in panels B-G. 6-OHDA (20 μg) was injected into right striatum of rats on day 0. TZ (70 μg/kg) or saline were injected (i.p.) daily for 2 weeks, beginning 2, 3, 4, or 5 weeks after 6-OHDA injection. Assays were at 0 and 2-7 weeks. B) Percentage of SNc cells that were TUNEL-positive. N=6. C) Quantification of TH protein assessed by immunoblot in the striatum normalized to control. N=6. D,E) Percentage of SNc cells positive for TH immunostaining (D) and intensity of TH immunostaining in striatum (E) 7 weeks after 6-OHDA injection; TZ treatment was weeks 5-7. N=6. F) Dopamine content in right striatum relative to left (control) striatum. N=6. G) Results of cylinder test. 6-OHDA was injected into right striatum impairing use of left paw. Assay was 7 weeks after 6-OHDA injection; TZ treatment was week 5-7. N=4 for control group and 10 for the two 6-OHDA groups. In panels C, D, E, and data points are from individual rats. Bars and whiskers indicate mean±SEM. Blue indicates controls and red indicates TZ treatment. In the figures, *p<0.05, **p<0.01, ***p<0.001. For panels B and F, statistical test was Mann-Whitney, for panels C, D, and E, a Kruskal-Wallis with Dwass-Steele-Critchlow-Fligner, and for panel a Friedman with Dunn's.
FIG. 13. TZ attenuates neurodegeneration, increases TH and dopamine, and improves motor function when administered after the onset of deterioration. A) Schematic for experiments in panels B-H. 6-OHDA (20 μg) was injected into right striatum of rats on day 0. TZ (70 μg/kg) or saline were injected (i.p.) daily for 2 weeks, beginning 2, 3, 4, or 5 weeks after 6-OHDA injection. Assays were at 0 and 2-7 weeks. B) Example of TUNEL staining in the SNc of rat brain. Samples were obtained at 5 weeks in sham-treated animals, 5 weeks in animals that received 6-OHDA, and at 7 weeks in animals that received vehicle or TZ from week 5 to 7. TUNEL (red) and DAPI (nuclei, blue). Scale bar, 5 μm. […] F) Nissl staining of neurons in the striatum region. Samples were obtained 2 weeks after 6-OHDA injection. Right panels show the quantification. […] Scale bar, 50 μm. Right panels show the quantification. N=3 per group. G,H) Measurement of DOPAC (G) and HVA (H) in right striatum relative to left (control) striatum. N=6.
For the 6-OHDA model in rats, pentobarbital sodium (80 mg/kg) was used as anesthesia by i.p. injection. Then, the rats were fixed in a stereotaxic frame (Benchmark, myNeuroLab, S-072607). 6-OHDA was dissolved in 0.2% ascorbic acid saline solution at 2.5 μg/μ1. […] Two weeks, three weeks, four weeks or five weeks later, apomorphine-induced rotational behavior was assessed to select the rats that had been successfully targeted. […]

[5] = system: diabetic patients; settings: references 48, 49; cited from earlier work

| SMILES | enrollees who developed PD [1] | number of people who developed PD [1] | effect on PGK1 [2] | apoptosis in cultured cells [3] | PGK1 activity in cultured cells ([3]; thereby increasing ATP levels) | forepaw use in cylinder test ([4]; 7 weeks after 6-OHDA, TZ between weeks 5 and 7) | TH levels in striatum and SNc, TH-positive cells in SNc, TH immunostaining in striatum ([4]; TZ 70 μg/kg i.p. daily for 2 weeks after 6-OHDA) | SNc cell apoptosis (TUNEL-positive cells) ([4]; TZ 70 μg/kg i.p. daily for 2 weeks, begun 2-5 weeks after 6-OHDA) | dopamine, DOPAC, and HVA content ([4]; right vs left striatum, TZ 70 μg/kg i.p.) | glucose metabolism [5] |
| --- | --- | --- | --- | --- | --- | --- | --- | --- | --- | --- |
| CCOc1ccccc1OCCN[C@H](C)Cc1ccc(OC)c(S(N)(=O)=O)c1 [tamsulosin] | 0.25% and 0.24% | 190 |  |  |  |  |  |  |  |  |
| COc1cc2nc(N3CCN(C(=O)C4CCCO4)CC3)nc(N)c2cc1OC (stereo not shown) [TZ, terazosin] |  |  | binds and activates | inhibited | enhanced | used both forepaws equally | partially reverted | attenuated further cell loss | partially prevented the reduction | improved |
